We go through 41 molecules from ChEMBL document CHEMBL3507680, “University of Dundee, Gates Library screen for HepG2 cell viability”.

A short description of this series: Human HepG2 cell viability assay in 384 well format. Conditions: HepG2 cells, read-out: Inhibition. Type of series: toxicity, cell-based. Set-up: dose 125 nL, time 70.5 hour; cytotoxicity at 70.5 h: concentration not given beside the values.

On to `Cc1ccc(NC(=O)Cn2ccc3c(=O)n(C)ccc32)cc1F`, for which the cytotoxicity at 70.5 h is -5.99%. As for `CS(=O)(=O)c1ccc(-c2ccccc2C(=O)O)cc1`, the cytotoxicity at 70.5 h is -4.68%. For the molecule `CNC(=O)c1cc(C)n(-c2ccccc2)n1`, the cytotoxicity at 70.5 h was -2.98%. In the case of `CN(C)C(=O)c1cccnc1SCc1ccccc1Cl`, the cytotoxicity at 70.5 h was determined as 1.28%. Next, `CN(C)C(=O)c1cccnc1SCc1ccccc1C#N`: -4.31%; `CSc1ncccc1C(=O)N(CCO)Cc1ccccc1`: -0.362%.

For the molecule `O=C(NC1CCCCC1)c1cc(Br)cnc1N1CCCCC1`, the cytotoxicity at 70.5 h is -4.56%.

Turning to `O=C1CC2(CCN(C(=O)c3ccncc3)CC2)Oc2c(Cl)cc(Cl)cc21`, the cytotoxicity at 70.5 h was -5.1%. In the case of `O=C1CC2(CCN(C(=O)c3ccccn3)CC2)Oc2c(Br)cc(Br)cc21` it was 1.74%; in that of `CC(=O)N1CCC(Nc2cc(F)ccc2OCC2CCCO2)CC1` (stereo unspecified), 11.4%. In the case of `COCCN1CCC(NCc2cc(F)ccc2F)C1` (stereo unspecified) it was 22.5%; in that of `CCc1noc(CN2CCCN(Cc3cccs3)CC2)n1`, -11.1%. Take `Cc1cc(C)c(C(=O)N2CCOCC2c2c(C)nn(C)c2C)o1` (stereo unspecified): the cytotoxicity at 70.5 h was -12.3%. In the case of `CNC(=O)COc1ccc(CNc2cncc(-n3cccn3)n2)cc1` it was -16.8%; in that of `CCCc1noc(CN2CCN(c3nccs3)CC2)n1`, -6.87%. Consider `COc1ncccc1NC(=O)N(Cc1ccc(C(N)=O)cc1)C1CC1`, for which the cytotoxicity at 70.5 h is -12.7%. Take `COc1ncccc1NC(=O)N(Cc1ccco1)C1CC1`: the cytotoxicity at 70.5 h is -14.3%. Regarding `COc1ncccc1NC(=O)N(CC(C)C)C1CC1`, the cytotoxicity at 70.5 h is -8.09%.

As for `COC(=O)Nc1ccc(CNc2cncc(-n3cccn3)n2)cc1`, the cytotoxicity at 70.5 h is -18.2%. In the case of `CC(C)OCc1ccc(CNc2cncc(-n3cccn3)n2)cc1` it was -5.97%. Next, `CCCOc1ccc(CNc2cncc(-n3cccn3)n2)cc1`: -6.6%. In the case of `CCN(CC)C(=O)c1ccc(CNc2cncc(-n3cccn3)n2)cc1` it was -7.26%; in that of `CN(C)c1cc(CNc2cncc(-n3cccn3)n2)ccn1`, -15.7%; in that of `O=C(Nc1cc(C(F)(F)F)c[nH]c1=O)N1CCOCC1`, -12.9%. Turning to `COC1CCN(C(=O)Nc2cc(C(F)(F)F)c[nH]c2=O)CC1`, the cytotoxicity at 70.5 h is -6.98%. With `O=C(c1ccsc1)N1CCC(Nc2cccnn2)CC1`, the cytotoxicity at 70.5 h is -3.37%.

With `c1ccc(CN2CCN(c3ccc4nncn4n3)CC2)nc1`, the cytotoxicity at 70.5 h is -9.47%. `c1ccc(CCN2CCN(c3ccc4nncn4n3)CC2)cc1`: the cytotoxicity at 70.5 h is -1.86%. For `Cc1ccc(NC2CCN(C(=O)c3ccc(F)c(C)c3)CC2)nn1`, the cytotoxicity at 70.5 h came out at 14.1%. In the case of `COc1ncccc1NC(=O)N(C1CC1)C(C)C(C)C` (stereo unspecified) it was -13.6%; in that of `O=C(O)c1c[nH]c2cc(NS(=O)(=O)c3cccc(F)c3F)ccc12`, -9.73%; in that of `O=C(O)c1c[nH]c2cc(NS(=O)(=O)c3cc(F)ccc3Cl)ccc12`, -9.41%. In the case of `Cc1ccc(F)cc1S(=O)(=O)Nc1ccc2c(C(=O)O)c[nH]c2c1` it was 1.03%; in that of `O=C(CC(F)(F)F)Nc1cc(F)ccc1OCC1CCCO1` (stereo unspecified), -11.3%. Next, `Cc1ccc(O)c(C(=O)N2CCOCC2c2c(C)nn(C)c2C)c1` (stereo unspecified): -2.1%. Turning to `CCCC(=O)N(C)C(c1cccc(F)c1)c1ccccn1` (stereo unspecified), the cytotoxicity at 70.5 h is -3.08%. Consider `Cn1cc(CCN2CCOC(CNc3cccnn3)C2)cn1` (stereo unspecified), for which the cytotoxicity at 70.5 h came to 21.9%.

Regarding `COc1ccc(C(=O)N2CCN(CCO)CC2)c(F)c1`, the cytotoxicity at 70.5 h was -4.32%. In the case of `CCn1c(C(=O)N2CCN(CC[S+](C)[O-])CC2)cc2ccccc21` (stereo unspecified) it was 0.944%; in that of `CCN(Cc1ccc2c(c1)OCO2)S(=O)(=O)N(C)C`, 0.18%; in that of `O=C(c1cccn1Cc1cccs1)N1CCN2CCCCC2C1` (stereo unspecified), 4.27%.
